Laboratory results: PMC12194305, “Assessing Bioconcentration and Biotransformation of BDE-47 In Vitro: The Relevance of Bioavailable and Intracellular Concentrations” (Journal of Xenobiotics, 2025)

How the values were obtained:
rainbow trout [1] = assay: IVIVE-BCF model with rainbow trout default parameters; format: in vitro ADME; settings: k1 and k2 from experimental Ccell and Cfree
ZFL cells = assay: Cell exposure for bioaccumulation: Ccell, Cmedium and in vitro BCF (ratio and toxicokinetic fit); format: cell-based, zebrafish; settings: for BCFexp, 24 h / BCFexp, 48 h / BCFexp, 72 h: Ccell,exp/Cmedium
Procedure: A total of 2 × 10^6 ZFL cells were plated in P100 glass dishes and incubated for 24 h under standard culture conditions. Subsequently, the culture medium was replaced with a contaminated medium, which, according to the cell viability assay, maintained viability above 70% by the end of the exposure period (Section 2.3). Cells were exposed to 1.8 and 2.6 mg⋅L^−1 for 24, 48 and 72 h, in two independent experiments. Parallel experiments were conducted under identical conditions to assess losses: one set included cells without contaminated medium, and another consisted of contaminated medium without cells (“no cells”). The obtained pellets were collected from all exposure time, dried under a gentle stream of nitrogen and weighed on a precision analytical balance (±0.00001 g). Finally, the dried cell pellets and their corresponding medium collected at all exposure times, including the starting medium (“t = 0 h”), were stored at −20 °C until analysis.
Extraction of BDE-47 and its metabolites was performed simultaneously for each of the samples, cells, and exposure media. Finally, 500 μL of exposure medium was extracted with 500 μL of hexane: MTBE mixture (1:1) shaken vigorously with a vortex for 30 s. For cells, the pellet obtained (~5 mg) was treated with same solvents but assisted with an ultrasound probe for 1 min at 30% of amplitude and a pulse on/off, with 2 s/5 s for cell samples. The internal standards (IS) BDE-99 and TCS had been previously added. The mixture was centrifuged for 10 min at 10,000 rpm. The organic phase was separated, and the extraction step was repeated. Remaining extracts were evaporated to dryness under a gentle stream of nitrogen and reconstituted in 200 μL isooctane. A total of 80 μL of the volume obtained was derivatized with 20 μL of MTBSTFA at 70 °C for 30 min in the oven and injected into GC-μECD-MS for the OH-BDE quantification. PBDEs and MeO-BDEs were determined by direct injection of the remaining volume of isooctane extracts into the GC-µECD-MS, because PBDEs are not stable after the derivatization process. Due to the difference in concentration in the samples of the metabolites and BDE-47, a double determination was performed and diluted with isooctane for the detection of the latter, so that it was interpolated on the same calibration curve.
The GC–MS-µECD system was used for the separation and determination of BDE-47 and its metabolites. The MS was used for the identification and the µECD for their quantification. Both detectors operate simultaneously, thanks to the use of a flow splitter placed at the end of the chromatographic column. Sample (1 μL) were injected in splitless mode at 280 °C. Helium was used as carrier gas at a constant pressure of 22 psi. Column temperature was programmed to increase from 130 °C (1 min) to 222 °C (1 min) at a rate of 90 °C·min^−1, then to 245 °C (1 min) at 1 °C·min^−1 and finally to 280 °C (8 min) at 45 °C·min^−1. The μECD temperature was set at 320 °C and nitrogen was used as makeup gas (30 mL·min^−1). The flow ratio of the splitter was 1:1, thanks to the helium input and the restrictor length of each detector, according to the manual supplied by Agilent Technologies. m/z values for the SIM program are collected in Table S1.
The first quantitative estimation of BCF was carried out according to the definition of BCF in the official OECD 305 guideline; that is, the ratio between the chemical concentration in the cells (Ccell) and the chemical concentration of the surrounding medium (Cmedium). As explained earlier, Ccell can be determined experimentally (Ccell,exp) or by MBM (Ccell,MBM). Both these terms can be related to the experimentally determined concentration in the medium (Cmedium), the free concentration experimentally determined (Cfree,exp) or the free concentration estimated using MBM (Cfree,MBM). […]

rainbow trout [2] = assay: IVIVE-BCF model with rainbow trout default parameters; format: in vitro ADME; settings: for BCFIVIVE, RT: ZFL cells, rainbow trout parameters
Text: One of the objectives was to assess whether cell lines can be used within the BCF-IVIVE model, relying on intrinsic clearance in vitro, to estimate the biotransformation rate which is subsequently extrapolated to adult fish. This approach is based on the model developed by Nichols et al. and is endorsed by the OECD guideline 319A [10] and OECD 2018a. Briefly, the log10-transformed substrate experimental concentrations in the medium (Cmed) were plotted against time, and the first-order elimination rate constant (ke, h^−1) was determined as −2.3 × slope of the log-linear decline. Black et al. indicate that a correction to the elimination rate constant (ke) should be applied when the following conditions are met: (i) abiotic losses from volatilization, calculated by comparing the recovery of negative control samples (“no cells”) at each exposure time to the initial time, fall outside the acceptable range of 80–120%, (ii) the loss process follows first order kinetics, and (iii) the ratio of ke and the volatilization rate constant (kvolat) is below 10 (ke/kvolat < 10). Then, the constant corrected for losses due to volatilization (ke,loss) was determined as −2.3 × the difference of the slopes of the sample and the loss control of the log-linear descent. The in vitro constant was then extrapolated to obtain an in vivo metabolization constant (kMET). This was done using experimental cell concentration (CHEP, 10^6 cells/mL) and default parameters derived from rainbow trout. In this study, in addition to estimating BCF with the official model parameters derived from rainbow trout (BCFIVIVE,RT), BCF was also estimated with the literature-derived parameters for zebrafish (BCFIVIVE,ZF), due to the use of ZFL cells. Finally, the BCF was estimated by the ratio of concentration in the organism to concentration in the medium, following the standardized model. The concentration in the organism was predicted using the one-compartment model given by Arnot and Gobas, which includes the rate constants describing chemical uptake (k1), loss through the gills (k2), fecal egestion (kE), growth rate (kG) and metabolization rate (kMET). Except for kMET, which is estimated experimentally in vitro, the rest are only dependent on the log KOW of the compound. On the other hand, due to the use of cell lines, the free concentration estimated was introduced instead of the total concentration in the medium (CW,TOT).

[3] = Cnominal 1.8 mg·L^−1, first-order toxicokinetic fit k1/k2

Brc1ccc(Oc2ccc(Br)cc2Br)c(Br)c1 [BDE-47, 2,2′,4,4′-tetrabromodiphenyl ether]
BCFIVIVE, RT, exp (rainbow trout [1]; Cnominal 1.8 mg·L^−1): 26,306 L·kg^−1
BCFIVIVE, RT, exp (rainbow trout [1]; Cnominal 2.6 mg·L^−1): 48,635 L·kg^−1
Recovery in the mass balance (ZFL cells; 24 h, 1.8 mg·L^−1, BDE-47 plus metabolites in cells, medium and losses): 77%
Recovery in the mass balance (ZFL cells; 24 h, 2.6 mg·L^−1): 79%
Recovery in the mass balance (ZFL cells; 48 h, 1.8 mg·L^−1): 70%
Recovery in the mass balance (ZFL cells; 48 h, 2.6 mg·L^−1): 82%
Recovery in the mass balance (ZFL cells; 72 h, 1.8 mg·L^−1): 74%
Recovery in the mass balance (ZFL cells; 72 h, 2.6 mg·L^−1): 97%
average decrease of Cmedium over time from nominal concentration (ZFL cells; Cnominal 1.8 mg·L^−1): 79%
BCFexp, 24 h (ZFL cells; Cnominal 1.8 mg·L^−1): 50 L/kg
BCFexp, 48 h (ZFL cells; Cnominal 1.8 mg·L^−1): 83 L/kg
BCFexp, 72 h (ZFL cells; Cnominal 1.8 mg·L^−1): 100 L/kg
BCFk Ccell exp/Cfree,exp (ZFL cells; [3]): 74,300 L·kg^−1
BCFk Ccell exp/Cw (ZFL cells; [3]): 30 L/kg
average decrease of Cmedium over time from nominal concentration (ZFL cells; Cnominal 2.6 mg·L^−1): 33%
BCFexp, 24 h (ZFL cells; Cnominal 2.6 mg·L^−1): 51 L/kg
BCFexp, 48 h (ZFL cells; Cnominal 2.6 mg·L^−1): 55 L/kg
BCFexp, 72 h (ZFL cells; Cnominal 2.6 mg·L^−1): 80 L/kg
BCFk Ccell exp/Cfree,exp (ZFL cells; Cnominal 2.6 mg·L^−1, first-order toxicokinetic fit k1/k2): 63,435 L·kg^−1
CLH (rainbow trout [2]; 1.8 mg·L-1, RT): 8.217 mL/h/kg
CLIN VITRO, INT (rainbow trout [2]; 1.8 mg·L-1, RT): 0.0220 mL/h/106 cells
kMET (rainbow trout [2]; 1.8 mg·L-1, RT): 0.0092 day⁻¹
CLH (rainbow trout [2]; 2.6 mg·L-1, RT): 1.38 mL/h/kg
CLIN VITRO, INT (rainbow trout [2]; 2.6 mg·L-1, RT): 0.0037 mL/h/106 cells
kMET (rainbow trout [2]; 2.6 mg·L-1, RT): 0.0015 day⁻¹
BCFIVIVE, RT (rainbow trout [2]; Cnominal 1.8 mg·L^−1): 7221 L/kg
BCFIVIVE, RT (rainbow trout [2]; Cnominal 2.6 mg·L^−1): 14,184 L·kg^−1
